Measured values: patent US20250066363A1, “Bicyclic DGK Inhibitors” (Incyte Corporation, priority 2023, published 2025)

Tests used:
DGKζ = DGKζ (Homo sapiens (Human), UniProt Q13574); experiment: In vitro DGKζ inhibition assay (ADP-Glo); format: biochemical; conditions: second column of Table A, head printed DGKα, presumably DGKζ; His-tagged human recombinant DGKζ 0.4 nM, 30 μM ATP, 20 μM DLG
Protocol: (§1) The DGKα and DGKζ biochemical reactions were performed using His-tagged human recombinant enzymes (Signal Chem, DGKα, #D21-10BH; DGKζ, #D30-1OH)) and DLG (Dilauroyl-sn-glycerol) lipid substrate (Signal Chem, #D430-59). ADP-Glo assay was performed using ADP-Glo™ kinase Assay kit (Promega, #V9104). The reactions were carried out in assay buffer containing 40 mM Tris, pH 7.5, 0.1% CHAPS, 0.1% Prionex, 40 mM NaCl, 5 mM MgCl2, 1 mM CaCl2, and 1 mM DTT. DGKα reactions contained 0.1 nM DGKα, 50 μM ATP, and 20 μM DLG. And DGKζ reactions contained 0.4 nM DGKζ, 30 μM ATP, and 20 μM DLG.
(§2) For compound inhibition studies, 40 nL test compound in DMSO was added to wells of white polystyrene plates in 384-well (Greiner, #784075) or 1536-well format (Greiner, #782075). Compounds were added with top concentration of 2 mM with 11 point, 3-fold dilution series. Enzyme solution (contains 2× DGK enzyme concentration in 1× assay buffer) was added to the plate in 2 μL/well volume, followed by 2 μL/well of substrate solution (contains 2× concentration of ATP and DLG substrate in 1× assay buffer). Plates were then centrifuged for 1 min at 1200 RPM and sealed or lidded. For 4 μL reaction volume, test compounds were therefore diluted 100× to final top concentration of 20 μM. After 90 minute incubation, reactions were quenched by addition of 2 μL/well Promega ADP-Glo Reagent, followed by centrifugation and lidding. After 60 min incubation, 2 μL/well Promega Kinase Detection Reagent was added, plates centrifuged, and incubated for 30 min. Plates were then read using Luminescence method on BMG PHERAstar FSX plate reader. Percent inhibition was calculated and IC50s were determined using 4-parameter fit in Genedata Screener. Labcyte Echo acoustic dispenser was used for compound addition, and Formulatrix Tempest liquid handler was used for all reagent dispenses.

DGKα = DGKα (Homo sapiens (Human), UniProt P23743); experiment: In vitro DGKα inhibition assay (ADP-Glo); format: biochemical; conditions: first column of Table A; His-tagged human recombinant DGKα 0.1 nM, 50 μM ATP, 20 μM DLG
Protocol: as §1, §2

DGKζ, sequence (Q13574 whole entry): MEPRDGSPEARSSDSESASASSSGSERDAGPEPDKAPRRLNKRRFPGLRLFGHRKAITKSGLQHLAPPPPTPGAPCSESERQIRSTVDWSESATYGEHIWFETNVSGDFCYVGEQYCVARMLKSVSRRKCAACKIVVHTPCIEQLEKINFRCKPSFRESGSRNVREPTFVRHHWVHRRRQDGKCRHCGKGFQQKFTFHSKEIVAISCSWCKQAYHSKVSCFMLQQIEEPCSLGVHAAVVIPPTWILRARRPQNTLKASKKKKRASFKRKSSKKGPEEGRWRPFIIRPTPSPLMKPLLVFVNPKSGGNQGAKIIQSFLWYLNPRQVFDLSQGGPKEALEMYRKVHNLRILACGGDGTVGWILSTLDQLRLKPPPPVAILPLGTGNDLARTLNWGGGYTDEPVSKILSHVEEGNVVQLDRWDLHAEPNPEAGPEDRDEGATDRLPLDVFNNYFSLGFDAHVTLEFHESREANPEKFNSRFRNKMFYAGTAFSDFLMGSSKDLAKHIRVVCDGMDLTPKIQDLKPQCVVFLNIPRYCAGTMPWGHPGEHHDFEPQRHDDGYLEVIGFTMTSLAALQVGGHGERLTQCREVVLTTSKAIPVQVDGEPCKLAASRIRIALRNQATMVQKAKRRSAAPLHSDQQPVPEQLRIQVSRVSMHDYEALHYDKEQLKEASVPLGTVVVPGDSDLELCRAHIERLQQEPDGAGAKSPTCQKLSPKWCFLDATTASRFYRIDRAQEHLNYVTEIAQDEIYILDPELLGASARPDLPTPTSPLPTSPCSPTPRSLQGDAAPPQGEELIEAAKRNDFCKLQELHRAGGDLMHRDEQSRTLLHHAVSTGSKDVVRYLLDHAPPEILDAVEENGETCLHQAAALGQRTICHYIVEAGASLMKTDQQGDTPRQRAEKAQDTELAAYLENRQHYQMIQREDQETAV
DGKα, sequence (P23743 whole entry): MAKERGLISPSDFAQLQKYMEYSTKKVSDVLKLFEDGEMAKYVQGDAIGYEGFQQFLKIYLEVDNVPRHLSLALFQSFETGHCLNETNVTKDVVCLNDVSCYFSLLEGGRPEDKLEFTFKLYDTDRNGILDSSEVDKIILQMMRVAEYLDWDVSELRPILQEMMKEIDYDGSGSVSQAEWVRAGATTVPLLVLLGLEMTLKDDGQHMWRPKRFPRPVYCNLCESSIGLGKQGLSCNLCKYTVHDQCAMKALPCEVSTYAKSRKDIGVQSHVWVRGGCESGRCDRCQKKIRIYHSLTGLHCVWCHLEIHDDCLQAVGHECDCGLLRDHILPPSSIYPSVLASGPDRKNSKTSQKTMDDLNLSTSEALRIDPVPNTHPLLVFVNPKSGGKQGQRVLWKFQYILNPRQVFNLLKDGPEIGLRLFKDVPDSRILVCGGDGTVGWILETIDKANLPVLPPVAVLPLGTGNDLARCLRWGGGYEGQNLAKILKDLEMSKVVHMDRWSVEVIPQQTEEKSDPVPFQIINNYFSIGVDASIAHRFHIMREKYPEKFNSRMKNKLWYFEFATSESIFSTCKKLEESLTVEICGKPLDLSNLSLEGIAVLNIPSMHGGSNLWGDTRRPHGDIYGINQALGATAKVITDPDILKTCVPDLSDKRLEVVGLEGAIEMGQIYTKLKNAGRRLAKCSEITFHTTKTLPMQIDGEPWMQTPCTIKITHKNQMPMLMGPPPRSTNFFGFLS

C[C@@H]1CN(c2nc(=O)n(C)c3c2ncn3C[C@@H]2CCCO2)[C@@H](C)CN1C(c1ccc(F)cc1)c1ccc(F)cc1 [Example 10, 6-((2S,5R)-4-(Bis(4-fluorophenyl)methyl)-2,5-dimethylpiperazin-1-yl)-3-methyl-9-(((S)-tetrahydrofuran-2-yl)methyl)-3,9-dihydro-2H-purin-2-one]
IC50 (DGKζ): ≤ 0.01 µM | IC50 (DGKα): ≤ 0.01 µM

Cc1nc2c(N3C[C@@H](C)N(C(c4ccc(F)cc4)c4ccc(F)cc4)C[C@@H]3C)cc(=O)n(C)c2n1C[C@@H]1CCCO1 [Example 11, 7-((2S,5R)-4-(Bis(4-fluorophenyl)methyl)-2,5-dimethylpiperazin-1-yl)-2,4-dimethyl-3-(((S)-tetrahydrofuran-2-yl)methyl)-3,4-dihydro-5H-imidazo[4,5-b]pyridin-5-one]
IC50 (DGKζ): ≤ 0.01 µM | IC50 (DGKα): ≤ 0.01 µM

C[C@@H]1CN(c2nc(=O)n(C)c3c2nnn3C[C@@H]2CCCO2)[C@@H](C)CN1C(c1ccc(F)cc1)c1ccc(F)cc1 [Example 12, 7-((2S,5R)-4-(Bis(4-fluorophenyl)methyl)-2,5-dimethylpiperazin-1-yl)-4-methyl-3-(((S)-tetrahydrofuran-2-yl)methyl)-3,4-dihydro-5H-[1,2,3]triazolo[4,5-d]pyrimidin-5-one]
IC50 (DGKζ): ≤ 0.01 µM | IC50 (DGKα): ≤ 0.01 µM

C[C@@H]1CN(c2nc(=O)n(C)c3c2nnn3C[C@H]2CCCO2)[C@@H](C)CN1C(c1ccc(F)cc1)c1ccc(F)cc1 [Example 13, 7-((2S,5R)-4-(Bis(4-fluorophenyl)methyl)-2,5-dimethylpiperazin-1-yl)-4-methyl-3-(((R)-tetrahydrofuran-2-yl)methyl)-3,4-dihydro-5H-[1,2,3]triazolo[4,5-d]pyrimidin-5-one]
IC50 (DGKζ): ≤ 0.01 µM | IC50 (DGKα): ≤ 0.01 µM

Cc1nc2c(N3C[C@@H](C)N(C(CC(C)C)c4ccc(Cl)cc4)C[C@@H]3C)nc(=O)n(C)c2n1C[C@@H]1CCCO1 (stereo partly drawn) [Example 16, 6-((2S,5R)-4-(1-(4-Chlorophenyl)-3-methylbutyl)-2,5-dimethylpiperazin-1-yl)-3,8-dimethyl-9-(((S)-tetrahydrofuran-2-yl)methyl)-3,9-dihydro-2H-purin-2-one]
IC50 (DGKζ): ≤ 0.01 µM | IC50 (DGKα): ≤ 0.01 µM

CC[C@@H]1CN(c2nc(=O)n(C)c3c2nnn3C[C@H]2CCCO2)[C@@H](C)CN1[C@H](c1ccc(Cl)cc1)[C@@H]1CC1(F)F [Example 22, 7-((2S,5R)-4-((S)-(4-Chlorophenyl)((S)-2,2-difluorocyclopropyl)methyl)-5-ethyl-2-methylpiperazin-1-yl)-4-methyl-3-(((R)-tetrahydrofuran-2-yl)methyl)-3,4-dihydro-5H-[1,2,3]triazolo[4,5-d]pyrimidin-5-one]
IC50 (DGKζ): ≤ 0.1 µM | IC50 (DGKα): ≤ 0.01 µM

CC[C@@H]1CN(c2nc(=O)n(C)c3c2nnn3C[C@H]2CCCO2)[C@@H](C)CN1[C@@H](c1ccc(Cl)cc1)[C@@H]1CC1(F)F [Example 23, 7-((2S,5R)-4-((R)-(4-chlorophenyl)((S)-2,2-difluorocyclopropyl)methyl)-5-ethyl-2-methylpiperazin-1-yl)-4-methyl-3-(((R)-tetrahydrofuran-2-yl)methyl)-3,4-dihydro-5H-[1,2,3]triazolo[4,5-d]pyrimidin-5-one]
IC50 (DGKζ): ≤ 0.01 µM | IC50 (DGKα): ≤ 0.01 µM

CC[C@@H]1CN(c2nc(=O)n(C)c3c2nc(C)n3C[C@@H]2CCCO2)[C@@H](C)CN1[C@@H](CC)c1ccc(Cl)cc1 [Example 24, 6-((2S,5R)-4-((S)-1-(4-Chlorophenyl)propyl)-5-ethyl-2-methylpiperazin-1-yl)-3,8-dimethyl-9-(((S)-tetrahydrofuran-2-yl)methyl)-3,9-dihydro-2H-purin-2-one]
IC50 (DGKζ): ≤ 0.01 µM | IC50 (DGKα): ≤ 0.01 µM

CC[C@@H]1CN(c2nc(=O)n(C)c3c2nc(C)n3C[C@@H]2CCCO2)[C@@H](C)CN1[C@H](CC)c1ccc(Cl)cc1 [Example 25, 6-((2S,5R)-4-((R)-1-(4-chlorophenyl)propyl)-5-ethyl-2-methylpiperazin-1-yl)-3,8-dimethyl-9-(((S)-tetrahydrofuran-2-yl)methyl)-3,9-dihydro-2H-purin-2-one]
IC50 (DGKζ): ≤ 0.01 µM | IC50 (DGKα): ≤ 0.01 µM

CC[C@@H]1CN(c2nc(=O)n(C)c3c2nnn3C[C@H]2CCCO2)[C@@H](C)CN1[C@@H](CC)c1ccc(Cl)cc1 [Example 26, 7-((2S,5R)-4-((S)-1-(4-Chlorophenyl)propyl)-5-ethyl-2-methylpiperazin-1-yl)-4-methyl-3-(((R)-tetrahydrofuran-2-yl)methyl)-3,4-dihydro-5H-[1,2,3]triazolo[4,5-d]pyrimidin-5-one]
IC50 (DGKζ): ≤ 0.01 µM | IC50 (DGKα): ≤ 0.01 µM

CC[C@@H]1CN(c2nc(=O)n(C)c3c2nnn3C[C@H]2CCCO2)[C@@H](C)CN1[C@H](CC)c1ccc(Cl)cc1 [Example 27, 7-((2S,5R)-4-((R)-1-(4-chlorophenyl)propyl)-5-ethyl-2-methylpiperazin-1-yl)-4-methyl-3-(((R)-tetrahydrofuran-2-yl)methyl)-3,4-dihydro-5H-[1,2,3]triazolo[4,5-d]pyrimidin-5-one]
IC50 (DGKζ): ≤ 0.1 µM | IC50 (DGKα): ≤ 0.01 µM

CC[C@@H]1CN(c2nc(=O)n(C)c3c2nc(C)n3C[C@@H]2CCCO2)[C@@H](C)CN1[C@@H](CC)c1ccc(C(F)(F)F)cc1 [Example 28, 6-((2S,5R)-5-Ethyl-2-methyl-4-((S)-1-(4-(trifluoromethyl)phenyl)propyl)piperazin-1-yl)-3,8-dimethyl-9-(((S)-tetrahydrofuran-2-yl)methyl)-3,9-dihydro-2H-purin-2-one]
IC50 (DGKζ): ≤ 0.01 µM | IC50 (DGKα): ≤ 0.01 µM

CC[C@@H]1CN(c2nc(=O)n(C)c3c2nc(C)n3C[C@@H]2CCCO2)[C@@H](C)CN1[C@H](CC)c1ccc(C(F)(F)F)cc1 [Example 29, 6-((2S,5R)-5-ethyl-2-methyl-4-((R)-1-(4-(trifluoromethyl)phenyl)propyl)piperazin-1-yl)-3,8-dimethyl-9-(((S)-tetrahydrofuran-2-yl)methyl)-3,9-dihydro-2H-purin-2-one]
IC50 (DGKζ): ≤ 0.01 µM | IC50 (DGKα): ≤ 0.01 µM

CC[C@@H]1CN(c2nc(=O)n(C)c3c2nnn3C[C@H]2CCCO2)[C@@H](C)CN1[C@@H](CC)c1ccc(C(F)(F)F)cc1 [Example 30, 7-((2S,5R)-5-Ethyl-2-methyl-4-((S)-1-(4-(trifluoromethyl)phenyl)propyl)piperazin-1-yl)-4-methyl-3-(((R)-tetrahydrofuran-2-yl)methyl)-3,4-dihydro-5H-[1,2,3]triazolo[4,5-d]pyrimidin-5-one]
IC50 (DGKζ): ≤ 0.01 µM | IC50 (DGKα): ≤ 0.01 µM

CC[C@@H]1CN(c2nc(=O)n(C)c3c2nnn3C[C@H]2CCCO2)[C@@H](C)CN1[C@H](CC)c1ccc(C(F)(F)F)cc1 [Example 31, 7-((2S,5R)-5-ethyl-2-methyl-4-((R)-1-(4-(trifluoromethyl)phenyl)propyl)piperazin-1-yl)-4-methyl-3-(((R)-tetrahydrofuran-2-yl)methyl)-3,4-dihydro-5H-[1,2,3]triazolo[4,5-d]pyrimidin-5-one]
IC50 (DGKζ): ≤ 0.01 µM | IC50 (DGKα): ≤ 0.01 µM

C[C@@H]1CN(c2nc(=O)n(C)c3c2nnn3C[C@@H]2CCCO2)[C@@H](C)CN1C(c1ccc(C(F)(F)F)cn1)c1ccc(C(F)(F)F)cn1 [Example 32, 7-((2S,5R)-4-(Bis(5-(trifluoromethyl)pyridin-2-yl)methyl)-2,5-dimethylpiperazin-1-yl)-4-methyl-3-(((S)-tetrahydrofuran-2-yl)methyl)-3,4-dihydro-5H-[1,2,3]triazolo[4,5-d]pyrimidin-5-one]
IC50 (DGKζ): ≤ 0.01 µM | IC50 (DGKα): ≤ 0.01 µM

C[C@@H]1CN(c2nc(=O)n(C)c3c2nnn3C[C@H]2CCCO2)[C@@H](C)CN1C(c1ccc(C(F)(F)F)cn1)c1ccc(C(F)(F)F)cn1 [Example 33, 7-((2S,5R)-4-(Bis(5-(trifluoromethyl)pyridin-2-yl)methyl)-2,5-dimethylpiperazin-1-yl)-4-methyl-3-(((R)-tetrahydrofuran-2-yl)methyl)-3,4-dihydro-5H-[1,2,3]triazolo[4,5-d]pyrimidin-5-one]
IC50 (DGKζ): ≤ 0.01 µM | IC50 (DGKα): ≤ 0.01 µM

CC[C@@H]1CN(c2nc(=O)[nH]c3c2nc(C)n3C[C@@H]2CCCO2)[C@@H](C)CN1C(c1ccc(Cl)cc1)C1CC(F)(F)C1 (stereo partly drawn) [Example 36, 6-((2S,5R)-4-((4-Chlorophenyl)(3,3-difluorocyclobutyl)methyl)-5-ethyl-2-methylpiperazin-1-yl)-8-methyl-9-(((S)-tetrahydrofuran-2-yl)methyl)-3,9-dihydro-2H-purin-2-one]
IC50 (DGKζ): ≤ 0.1 µM | IC50 (DGKα): ≤ 0.01 µM
